Source: patent US5474993A, “Lactam inhibitors of cholesterol esterase” (Sterling Winthrop, Inc., priority 1994, dated 1995)

Target: T1, pancreatic cholesterol esterase (PCEH) (Homo sapiens, UniProt P19835)
T1 sequence (P19835 21-753): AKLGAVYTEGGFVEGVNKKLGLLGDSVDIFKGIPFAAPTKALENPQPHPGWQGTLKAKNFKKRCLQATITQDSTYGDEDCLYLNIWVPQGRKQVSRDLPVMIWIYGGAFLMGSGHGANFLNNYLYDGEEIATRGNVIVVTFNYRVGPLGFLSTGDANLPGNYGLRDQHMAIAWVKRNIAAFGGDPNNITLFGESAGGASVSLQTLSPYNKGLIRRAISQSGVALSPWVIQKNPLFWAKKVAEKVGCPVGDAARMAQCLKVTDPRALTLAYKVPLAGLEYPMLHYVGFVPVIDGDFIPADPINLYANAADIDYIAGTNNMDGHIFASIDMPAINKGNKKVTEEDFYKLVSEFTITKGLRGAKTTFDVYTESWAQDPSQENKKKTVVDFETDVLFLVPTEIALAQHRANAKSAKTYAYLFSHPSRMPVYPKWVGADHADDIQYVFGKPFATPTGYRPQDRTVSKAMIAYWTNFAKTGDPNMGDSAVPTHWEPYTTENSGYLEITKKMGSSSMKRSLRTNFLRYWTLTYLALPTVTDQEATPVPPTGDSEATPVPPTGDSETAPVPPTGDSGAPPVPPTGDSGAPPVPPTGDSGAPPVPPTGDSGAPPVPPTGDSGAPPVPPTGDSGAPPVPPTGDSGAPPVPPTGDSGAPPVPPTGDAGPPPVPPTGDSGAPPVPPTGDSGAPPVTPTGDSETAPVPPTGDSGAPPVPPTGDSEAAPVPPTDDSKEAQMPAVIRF
Test: KM estimation for PNPA substrate
Assay type: biochemical
Conditions: nonlinear fit to the rate-progress curve
Experimental: Purified pancreatic cholesterol esterase or ester hydrolase (PCH), shown by SDS-acrylamide and isoelectric focusing electrophoresis to be homogeneous,is used in a fresh solution of 90 mM (PNPA) in methanol.
First an initial screen is conducted as follows: to determine the effect of an inhibitor on the rate of enzyme catalyzed hydrolysis of PNPA, enzyme and inhibitor are first incubated at room temperature for ten minutes. Following incubation, enough PNPA substrate to give a final concentration of 0.225 mM is added. The rate of PNPA hydrolysis is monitored by observing an increase of absorption at 405 nm over the course of ten minutes. On average, the concentration of inhibitor is 1300-fold greater than that of the enzyme inhibitor concentrate. The maximum solubility of PNPA of approximately twice the value of Km, limited the accuracy the KM determination for the PNPA substrate. The estimated KM based on a nonlinear fit to the rate-progress curve is KM ~1 mM. With this estimate the substrate concentration used in the screen was approximately 0.25 KM.

SMILES: CC(=O)Oc1ccc([N+](=O)[O-])cc1 [PNPA, p-nitrophenyl acetate]
- estimated KM: ~ 1 mM
